# From PMC5786306, “An AKAP-Lbc-RhoA interaction inhibitor promotes the translocation of aquaporin-2 to the plasma membrane of renal collecting duct principal cells” (PLoS ONE, 2018)
# What was measured:
# [1] = test system: RhoA activation by other RhoGEFs (p63RhoGEF, Duet, Trio, LARG, Ost1, PDZRhoGEF and others) in HEK293 cells; assay: SRE luciferase reporter assay, other RhoGEFs expressed; type: cell-based, human; details: Scaff10 50 μM
# Description: Luciferase reporter gene assays were performed with the Dual Luciferase Reporter Assay System (Promega) according to manufactures protocol and as previously reported. In brief, HEK293 cells were seeded and co-transfected with the indicated plasmids together with pSRE.L reporter plasmid encoding firefly luciferase (kindly provided from Dr J. Mao and Dr. D. Wu, Rochester, NY) and pRL-TK control vector (Promega, Mannheim, Germany) encoding renilla luciferase. The transfected cells were further cultured in DMEM with 0.5% FCS for 24 h, lysed with passive lysis buffer (Promega). Luciferase activities was measured an Envision Instrument (Perkin Elmer, Rodgau, Germany) in white 96-well plates. […] In Western blots, the protein was detected with primary polyclonal antibody (rabbit; Gramsch, 1:1000). […] AKAP-Lbc was detected with a specific anti-AKAP-Lbc antibody (Abcam; #ab99377; 1:1000). […]
# Fig 7 Scaff10-8 inhibits the AKAP-Lbc-mediated activation of RhoA in cells. […] Statistically significant differences were determined applying one-way ANOVA with posthoc Bonferroni. […]
# in luciferase activity induced by other GEFs. n=3; statistically significant differences were not found, as confirmed by statistical analysis using ANOVA. […] The fraction of active RhoA was determined using Rhotekin pulldown assays as described. […]
# [2] = molecular target: T1, GST-RhoA (F25N), GDP- or GTPγS-bound (Homo sapiens, UniProt P61586, F25N); assay: Isothermal titration calorimetry (ITC) with GST-RhoA; type: binding
# T1 construct: made in house
# Description: ITC measurements were essentially carried out as previously described. The stabilizing RhoA mutant F25N [41] was purified as a GST-RhoA fusion in its GDP-bound form (final gel filtration purification step in 20 mM HEPES, pH 7.5, 150 mM NaCl, 2 mM DTT, 50 μM GDP). In order to exchange GDP against GTPγS, GST-RhoA loaded with GDP was incubated for 20 min in ITC nucleotide exchange buffer (50 mM HEPES, pH 7.5, 20 mM EDTA) at 25°C followed by three dilution and concentration steps in Amicon tubes (10,000 MWCO) using ITC dialysis buffer (50 mM HEPES, pH 7.4, 150 mM NaCl, 5 mM MgCl2, 2 mM β-mercaptoethanol). The nucleotide-loading state was confirmed by HPLC. All proteins used in ITC measurements were dialyzed overnight against ITC dialysis buffer. Protein concentrations were determined with NanoDrop ND-1000. GDP or GTPγS (final concentration 2 mM) and DMSO (2%) were added to the proteins prior to the ITC measurements. Scaff10-8 was dissolved in the same buffer (including 2% DMSO and 2 mM GDP or GTPγS). ITC measurements were performed on a VP-ITC (GE Healthcare, München, DE) at 15°C. Titrations were conducted using 14.8 μM Scaff10-8 in the cell and 235 μM (GST control), 222 μM (GST-RhoA, GDP-bound) or 210 μM (GST-RhoA, GTPγS-bound) in the syringe. The cell was stirred at 351 rpm and a total of 27 x 10 μl injections were added to the cell, separated by 240 s of equilibration. The data were fitted using the Microcal Origin software (version 7.0) and a one-site binding model. We consistently observed a binding number close to N = 0.5 (RhoA/Scaff10-8). This observation may be due to the binding of two molecules of Scaff10-8 per one molecule of GST-RhoA for both the GDP-bound and GTPγS-bound form of GST-RhoA, or due to some inaccuracy in the determination of protein or compound concentrations. The data were thus fitted using a fixed binding number of N = 0.5.
# T1 sequence (P61586 whole entry F25N): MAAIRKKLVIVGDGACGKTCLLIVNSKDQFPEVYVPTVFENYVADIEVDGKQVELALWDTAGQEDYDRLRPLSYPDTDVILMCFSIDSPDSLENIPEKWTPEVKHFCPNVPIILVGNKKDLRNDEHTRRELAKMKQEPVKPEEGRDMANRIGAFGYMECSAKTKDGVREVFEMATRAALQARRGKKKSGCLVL
SMILES,luciferase activity induced by other GEFs [1],"KD for GST-RhoA loaded with GDP ([2]; 15°C, 2 mM GDP, fixed N = 0.5)","KD for GST-RhoA loaded with GTPγS ([2]; 15°C, 2 mM GTPγS, fixed N = 0.5)",binding number N (RhoA/Scaff10-8) ([2]; GDP- and GTPγS-bound forms)
"COc1ccc(-c2coc3cc4oc(=O)c(C)c(C)c4cc23)cc1 [Scaff10, 3-(4-Methoxyphenyl)-5,6-dimethyl-furo[3,2-g]chromen-7-one]",does not affect,,,
"COc1ccc(-c2coc3cc4oc(=O)c(CCC(=O)O)c(C)c4cc23)cc1 [Scaff10-8, 3-[3-(4-Methoxyphenyl)-5-methyl-7-oxo-furo[3,2-g]chromen-6-yl] propanoic acid]",,20 ± 1 µM,38 ± 4 µM,~0.5
